In US20230384333A1 (priority 2020, published 2023):
Entries after “also recorded” stand apart in the source; their conditions may differ. Read-outs that look alike come from different tables or passages of the source.

Experiments:
psychLight2 [1] = format: cell-based, human
Description: Compounds unlikely to bind to the sensor should produce minimal to no response in either agonist or antagonist mode. Therefore, a ligand score was calculated as: […]

C57BL/6J mice = test: Head-twitch response (HTR) assay; format: in vivo, mouse; details: i.p., multiple doses
Description: The HTR assay was performed as described previously using both male and female C57BL/6J mice (2 male and 2 female=4 total per treatment). The mice were obtained from The Jackson Laboratory (Sacramento, C.A.) and were approximately 8-weeks old at the time of the experiments. Compounds were administered (5 mL/kg, i.p.) using 0.9% saline as the vehicle. After injection, animals were placed into an empty cage (8″×13″×5″) and HTRs were videotaped, scored later by two blinded observers, and the results were averaged (interpersonnel kappas, Pearson correlation coefficient>0.91). Locomotion was assessed using AnyMaze automated tracking software.

psychLight2 [2] = test: PSYLI2 high-content imaging, agonist mode; format: cell-based, human
Description: (§1) High-Content Imaging Experiments. Glass bottom 96-well plates (P96-1.5H-N, Cellvis) were coated with 50 μg/mL of poly-D-lysine (Sigma, P6407-5MG) and 10 μg/mL laminin (Sigma, L2020) overnight in an incubator (37° C., 5% CO2). […] Immediately prior to an experiment, stock solutions of drugs in DMSO (10 mM) were first diluted 1:100 in imaging media distributed across an empty 96-well plate (treatment plate) in triplicates following a randomized plate map. […] Cells grown in a separate 96-well plate (assay plate) were gently washed (3×) with imaging media, and the wells were filled with an appropriate volume of imaging media for the respective experiment (vide infra).
(§2) For agonist mode, […] of imaging media was added to each well of the assay plate. Wells were then imaged on a Lecia DMi8 using Leica Application Suite X (V3.6.0.20104) at 40×(N.A.=0.6) with 5 regions of interest (ROI) taken per well using the default 5 ROI pattern for each well with no bias to location and no overlap of the ROIs (exposure=350 ms, LED power=80%). Next, 20 μL from the treatment plate was transferred to the assay plate for a total 1:1000 dilution of drug (10 μM drug, 0.1% DMSO). […] All final concentrations of drugs were 10 μM (0.1% DMSO) in agonist mode unless stated otherwise. After 5 min of incubation, the same sites were re-imaged using the same settings.
Once imaging was complete, the images were exported, put into a stack, and analyzed using ImageJ Fiji (ver. 1.51v) by using the rectangle function to draw an ROI around the cell membrane (one cell per image) on both the pre- and posttreatment images. ROI sizes within each plate were kept the same and saved to the ROI manager in ImageJ (ctrl+T). Images were then measured using the “multi measure” function in the ROI manager. Measurements were saved and exported. Analysis of the data was done by taking the average of each individual well's ROIs before and after drugs were added. Then the ΔF/F values for each well were calculated using the following equation: […]
as §1, with “Glass” for “High-Content Imaging Experiments. Glass”, “50 µg/mL” for “50 μg/mL”, “10 pg/mL of” for “10 μg/mL”, “were” for “were first”, “in triplicate” for “in triplicates”, “washed 3×” for “washed (3×)”
as §2, with “agonist mode experiments,” for “agonist mode,”, “media were” for “media was”, “20 pL” for “20 μL”, “plate containing” for “plate for”, “a” for “a total”, “(10 pM as the final concentration in” for “(10 μM drug,”
Once imaging was complete, the images were exported, and analyzed using self-written MATLAB script. Script will be deposit on to Github. In short, segmentation was performed on individual images and a mask highlighting the membrane of the HEK293T cells was generated. Pixel intensities were obtained from the mask-highlighted area and exported into Excel. The ΔF/F values for each well were calculated using the following equation: […]

psychLight1 [3] = target: psychLight1 (Homo sapiens, UniProt P28223, E264Q/I181A); test: cell-based; format: cell-based
psychLight1 (Homo sapiens, UniProt P28223, E264Q/I181A), sequence (P28223 whole entry I181A/E264Q, looked up): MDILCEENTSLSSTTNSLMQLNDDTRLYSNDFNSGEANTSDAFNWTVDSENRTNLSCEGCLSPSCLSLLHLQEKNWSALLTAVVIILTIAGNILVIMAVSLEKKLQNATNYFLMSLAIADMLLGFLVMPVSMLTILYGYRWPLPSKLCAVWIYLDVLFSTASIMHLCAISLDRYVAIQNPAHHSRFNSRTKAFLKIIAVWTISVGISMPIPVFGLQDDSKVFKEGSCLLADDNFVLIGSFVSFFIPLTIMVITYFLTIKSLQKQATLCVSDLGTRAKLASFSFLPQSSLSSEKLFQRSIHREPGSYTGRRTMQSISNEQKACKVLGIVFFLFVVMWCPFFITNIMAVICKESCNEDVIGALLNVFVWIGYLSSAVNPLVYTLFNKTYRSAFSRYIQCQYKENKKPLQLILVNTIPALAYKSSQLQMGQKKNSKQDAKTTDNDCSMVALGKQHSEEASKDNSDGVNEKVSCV
Description: (§3) HEK293T cells were grown in DMEM, supplemented with fetal bovine serum (FBS) and penicillin-streptomycin. Cells were trans-fected with Effectene according to the manufacturer's instructions. Prior to imaging, cells were washed with Hank's Balanced Salt Solution (HBSS) supplemented with 2 mM MgCl2 and 2 mM CaCl2). All images were collected in HBSS containing Mg^2+ and Ca^2+.
(§4) HEK293T cells were plated and transfected concurrently 24 h prior to each experiment using the QIAGEN Effectene Transfection
(§5) Dose-response experiments were performed using an Automate Perfusion System. Cells (HEK293T) were grown on 12 mm cover-slips and transfected with psychLight1. The coverslips were then placed into a coverslip holder and washed with 5 mL of HBSS containing 2 mM MgCl2 and 2 mM CaCl2). Cells were perfused first with 5 mL of 0.1% DMSO, then drugs in ascending concentrations from 1 pM to […] were added, with the concentration of DMSO being held constant at 0.10%. […] For the competition studies described in FIG. 19, HEK293T cells were prepared as described above; however, the cells were first exposed to 5 mL of 0.2% DMSO. […] Analysis was performed by taking 3 ROIs on the cell membrane using ImageJ and calculating the mean intensity for each ROI across the time-points. Finally, the DF/F was calculated using the average of the baseline (0.1 or 0.2% DMSO) and the average intensity between each dosage over the average of the baseline.

psychLight2 [4] = details: mouse, in vivo
Description: Three animals were used for experiments measuring sensor activity in the prelimbic cortex.

psychLight1 [5] = test: cell-based; format: cell-based, human; details: for EC50: read-out: EC50 (half maximal effective concentration)
Description: as §3, §4, §5

psychLight [6] = format: cell-based, human
[7] = tested on: psychLight2 response to electrically evoked 5-HT release; set-up: species or system mouse
psychLight [8] = test: Schild regression analysis in PSYLI2 cells; format: cell-based, human
Description: During imaging, […] of imaging media were added to each well of the assay plate. Wells were then imaged on a Lecia DMi8 using Leica Application Suite X (V3.6.0.20104) at 40×(N.A.=0.6) with 5 regions of interest (ROI) taken per well using the default 5 ROI pattern for each well with no bias to location and no overlap of the ROIs (exposure=350 ms, LED power=80%). Next, […] from the treatment plate was transferred to the assay plate for a final 1:1000 dilution of drug. All final drug treatments contained 0.1% DMSO. After 5 min of incubation, the same sites were re-imaged using the same settings. The data analysis method was the same as in agonist and antagonist mode.

[9] = HEK293T cells expressing psychLight
[10] = 10 μM compound, hit limit 1 SD from vehicle

With `CN(C)CCc1c[nH]c2ccc(Br)cc12` [5-Br-DMT, 5-bromo-N,N-dimethyltryptamine] as the compound, how does the ligand score (psychLight2 [1]) read?
The ligand score was “negative ligand score”.

What about the “head-twitch response (HTR)” value (C57BL/6J mice) of the same compound?
The value was “did not induce head-twitches at any dose; also recorded: failed to induce HTRs at any dose”.

For `CN(C)CCc1c[nH]c2ccc(Cl)cc12` [5-Cl-DMT, 5-chloro-N,N-dimethyltryptamine], which ligand score (psychLight2 [1]) is on record?
Its ligand score is “positive ligand scores”.

What about the “head-twitch response (HTR)” value (C57BL/6J mice) of the same compound?
Its value is “produced robust HTRs”.

What does the source list for `CN(C)CCc1c[nH]c2ccc(F)cc12` [5-F-DMT, 5-flouo-N,N-dimethyltryptamine]?
ligand score (psychLight2 [1]): positive ligand scores; head-twitch response (HTR) (C57BL/6J mice): produced robust HTRs

Which results are given for `NCCc1c[nH]c2ccc(O)cc12` [5-HT, serotonin]?
PSYLI2 response (positive and negative controls) (psychLight2 [2]): 44.8±0.8%; fluorescence intensity change, high content imager with psychLight2 (psychLight2 [2]): 38.2±2.4%; ΔF/F PSYLI2 fluorescence, panel of tryptamines (psychLight2 [2]): 46.3%±1.4%; fluorescence intensity change, confocal with psychLight1 (psychLight1 [3]): 77.3±2.4%

How did the “fluorescence intensity change, high content imager with psychLight2” value (psychLight2 [2]) turn out when `COc1ccc2[nH]cc(CCN(C)C)c2c1` [5-MeO, 5-methoxy-N,N-dimethyltrytamine] was run?
Its value is 24.1±4.6%.

And the “head-twitch response during fiber photometry” value (psychLight2 [4])?
The value was “concomitant increase in HTR”.

What about the “psychLight2 fluorescence in prelimbic cortex after injection” value (psychLight2 [4]) of the same compound?
Its value is “sharp increase in fluorescence”.

What about the “fluorescence intensity change, confocal with psychLight1” value (psychLight1 [5]) of the same compound?
Its value is 48.4±3.1%.

What about the EC50 (psychLight1 [5]) of the same compound?
The EC50 was 157 nM.

What about the Emax (psychLight1 [3]) of the same compound?
Its Emax is 48.4%.

For `CN(C)CCc1c[nH]c2ccc(O)cc12` [BUFO, N,N-dimethylserotonin], which “ΔF/F PSYLI2 fluorescence, panel of tryptamines” value (shortened to “ΔF/F PSYLI2 fluorescence, panel”) (psychLight2 [2]) is on record?
The value was 22.3%±2.8%.

Which “screen outcome in agonist mode” value (psychLight2 [2]) does the source give for `CN(C)CCc1c[nH]c2ccccc12` [DMT, N,N-dimethyltrytamine] here?
Its value is “false negative”.

And the EC50 (psychLight1 [5])?
Its EC50 is 627 nM.

What about the Emax (psychLight1 [3]; HEK-293T) of the same compound?
Its Emax is 12.4%.

With `NCCCC(=O)O` [GABA, y-aminobutyric acid] as the compound, how does the “response of psychLight to neurotransmitters” value (shortened to “response of psychLight”) (psychLight [6]; [9]) read?
Its value is “do not respond”.

With `O=C(c1ccc(F)cc1)C1CCN(CCn2c(=O)[nH]c3ccccc3c2=O)CC1` [KETSN, ketanserin] as the compound, how does the “PSYLI2 response (positive and negative controls)” value (psychLight2 [2]) read?
The value was −12.7±0.5%.

What about the “fluorescence intensity change, high content imager with psychLight2” value (psychLight2 [2]) of the same compound?
The value was −3.5±1.6%.

What about the “block of psychLight fluorescence to electrically evoked 5-HT transients” value (“block of psychLight fluorescence” below) [7] of the same compound?
Its value is “sufficient to block psychLight fluorescence”.

What about the “peak response to field stimulation of BNST slices” value ([7]; KETSN 10 μM, N=5 slices) of the same compound?
The value was 0±0.36%.

What about the “block of 5-HT-induced activation of psychLight” value (psychLight1 [3]) of the same compound?
Its value is “able to block 5-HT-induced activation of psychLight”.

And the “effect on psychLight fluorescence” value (psychLight1 [3])?
The value was “neutral antagonists; also recorded: minimal effect on psychLight1 fluorescence or slightly quenched the sensor”.

What about the “fluorescence intensity change, confocal with psychLight1” value (psychLight1 [3]) of the same compound?
The value was −1.7±0.3%.

For `CCN(CC)C(=O)N[C@H]1C=C2c3cccc4[nH]cc(c34)C[C@H]2N(C)C1` [LIS, lisuride], which “Schild regression (pA2) outcome” value (psychLight [8]) is on record?
The value was “potent psychLight competitive antagonists”.

`CNCCc1c[nH]c2ccc(O)cc12` [N-5-HT, N-methylserotonin] was tested. Which “ΔF/F PSYLI2 fluorescence, panel” value (psychLight2 [2]) did it give?
The value was 24.6%±1.7%.

With `c1ccc(C2(N3CCCCC3)CCCCC2)cc1` [PCP, Phencyclidine] as the compound, how does the “screen outcome in agonist mode” value (psychLight2 [2]) read?
Its value is “did not activate the sensor”.

What about the ligand score (psychLight2 [1]) of the same compound?
The ligand score was about 0.

For `C[C@H](Cc1ccccc1)N(C)C` [R-dimethamphetamine, (R)-dimethamphetamine], which “screen outcome in agonist mode” value (psychLight2 [2]; [10]) is on record?
Its value is “potential hallucinogenic hits”.

`CN1CCc2cccc3c2[C@H]1Cc1ccc(O)c(O)c1-3` [apomorphine, R-(−)-apomorphine] was tested. Which “Schild regression (pA2) outcome” value (psychLight [8]) did it give?
The value was “potent psychLight competitive antagonists”.

How did the “Schild regression (pA2) outcome” value (psychLight [8]) turn out when `CN1[C@@H]2CC[C@H]1C[C@@H](OC(c1ccccc1)c1ccccc1)C2` [benztropine] was run?
Its value is “potent psychLight competitive antagonists”.

`NCCc1ccc(O)c(O)c1` [dopamine] was tested. Which “response of psychLight” value (psychLight [6]) did it give?
Its value is “do not respond”.

`N[C@@H](CCC(=O)O)C(=O)O` [glutamate, L-glutamic acid] was tested. Which “response of psychLight” value (psychLight [6]; [9]) did it give?
Its value is “do not respond”.

How did the “block of psychLight fluorescence” value [7] turn out when `CN1C2CCCC1CC(NC(=O)c1nn(C)c3ccccc13)C2` (stereo not shown) [granisetron] was run?
The value was “sufficient to block psychLight fluorescence”.

Which “response of psychLight” value (psychLight [6]; [9]) does the source give for `NC[C@H](O)c1ccc(O)c(O)c1` [norepinephrine] here?
Its value is “do not respond”.

What does the source list for `COC(=O)[C@@H]1C[C@H](OC(C)=O)C(=O)[C@H]2[C@@]1(C)CC[C@H]1C(=O)O[C@H](c3ccoc3)C[C@]21C` [salvinorin A]?
screen outcome in agonist mode (psychLight2 [2]; [10]): did not activate the sensor; ligand score (psychLight2 [1]): ~0

For `NCCc1c[nH]c2ccccc12` [tryptamine], which “ΔF/F PSYLI2 fluorescence, panel” value (psychLight2 [2]) is on record?
The value was “robust response”.

With tetrodotoxin citrate as the compound, how does the “block of psychLight fluorescence” value [7] read?
The value was “sufficient to block psychLight fluorescence”.
